Data: patent US20130059783A1, “COMPOSITIONS AND METHODS FOR EXPANDING BFU-E CELLS” (priority 2010, published 2013)

Test system: mRNA expression in BFU-E cells
Assay: mRNA-Seq of BFU-E cells cultured 4 hours with or without Dex (Table S3)
Format: cell-based, mouse
Conditions: for Expression level log2((100 nM DEX)* (0 nM DEX)) / Expression of mRNA in BFU-E after 4 h 100 nM DEX (RPKM) / Expression change log2 ((100 nM DEX)/(0 nM DEX)) / Expression change log2 ((100 nM DEX)/(0 nM DEX))2: BFU-E, 4 h; for Expression change log2 ((100 nM DEX)/(0 nM DEX)): 100 nM vs 0 nM DEX
Description: FIGS. 2A-2B. The effect of glucocorticoids on miRNA and mRNA expression in BFU-E cells determined by next generation sequencing. […] Both mRNAs and miRNAs were subjected to Illumina deep sequencing. […] (B) A plot similar to that in A for expression of individual mRNAs. mRNA expression was normalized using the RPKM method, which determines the relative expression of each gene to all expressed genes by giving each gene an RPKM count (number of uniquely aligning reads per kb exon per million total reads). […]
To minimize the risk of false positive GC target genes we chose to compare only highly expressed genes (≈10,000 genes with a multiplied RPKM count >4) (Mortazavi et al., 2008).
Samples for Paired-End mRNA-Seq were prepared using the Solexa kit according to the manufacturer's instructions with the exception that we extracted 300 bp bands, before and after the PCR step (Illumina). Images acquired from the Solexa sequencer were processed through the bundled Solexa image extraction pipeline version 1.4. mRNA-Seq reads were aligned to mouse NCBI build 37 (mm9) using ELAND, Briefly, the first 32 bases of a read were used as a seed. Each matched seed was then extended up to 36 bases and scored to break any ties between multi-matches. For mRNA expression counts, unique reads in the genome that landed within any exons of NCBI gene models (v37.1) were counted. The counts were normalized by the mRNA length to get the final RPKM values (i.e. reads per KB per million reads).

[1] = BFU-E cells, 4 hours, 100 nM Dex
[2] = gene 38413 (membrane-associated ring finger (C3HC4) 3)

In the case of `C[C@@H]1C[C@H]2[C@@H]3CCC4=CC(=O)C=C[C@]4(C)[C@@]3(F)[C@@H](O)C[C@]2(C)[C@@]1(O)C(=O)CO` [Dex, dexamethasone], the “Upregulation of Ddit4” value (BFU-E cells, 4 hours) is reported as > 8 fold, the “Genes differentially expressed (more than a factor of 2)” value [1] is reported as 195 genes and the “Genes down regulated (more than a factor of 2)” value [1] is reported as 112 genes. For the same compound, the “Genes up regulated (more than a factor of 2)” value [1] was 83 genes, the “Expression level log2((100 nM DEX)* (0 nM DEX))” value [2] was 4.94 and the “Expression of mRNA in BFU-E after 4 h 100 nM DEX (RPKM)” value (shortened to “Expression of mRNA in BFU-E”) [2] was 8.25 RPKM. For the same compound, the “Expression of mRNA in BFU-E” value (gene 0610040J01Rik) was 14.77 RPKM, the “Expression change log2 ((100 nM DEX)/(0 nM DEX))” value (gene 0610040J01Rik) was 2.84 and the “Expression of mRNA in BFU-E” value (gene Acp5) was 20.40 RPKM. For the same compound, the “Expression change log2 ((100 nM DEX)/(0 nM DEX))” value (gene Acp5) was 2.70, the “Expression of mRNA in BFU-E” value (gene Ampd3) was 15.71 RPKM and the “Expression of mRNA in BFU-E” value (gene Ank) was 48.60 RPKM. For the same compound, the “Expression change log2 ((100 nM DEX)/(0 nM DEX))” value (gene Ank) was 2.06, the “Expression change log2 ((100 nM DEX)/(0 nM DEX))2” value (gene Aqp3) was 1.34 and the “Expression of mRNA in BFU-E” value (gene Aqp3) was 6.98 RPKM. For the same compound, the “Expression of mRNA in BFU-E” value (gene Arhgef3) was 16.21 RPKM, the “Expression change log2 ((100 nM DEX)/(0 nM DEX))” value (gene Arhgef3) was 2.88 and the “Expression level log2((100 nM DEX)* (0 nM DEX))” value (gene Atp2b4) was 9.79. For the same compound, the “Expression of mRNA in BFU-E” value (gene Atp2b4) was 43.89 RPKM, the “Expression of mRNA in BFU-E” value (gene Bcl2) was 6.45 RPKM and the “Expression change log2 ((100 nM DEX)/(0 nM DEX))” value (gene Bcl2) was 1.69. The “Expression of mRNA in BFU-E” value (gene Cables1) was 4.90 RPKM, the “Expression change log2 ((100 nM DEX)/(0 nM DEX))2” value (gene Ccnd1) was 1.34 and the “Expression level log2((100 nM DEX)* (0 nM DEX))” value (gene Ccnd1) was 3.76. The “Expression of mRNA in BFU-E” value (gene Ccnd1) was 5.86 RPKM, the “Expression level log2((100 nM DEX)* (0 nM DEX))” value (gene Cd59a) was 2.18 and the “Expression of mRNA in BFU-E” value (gene Cd59a) was 3.15 RPKM. For the same compound, the “Expression of mRNA in BFU-E” value (gene Clca1) was 7.54 RPKM, the “Expression change log2 ((100 nM DEX)/(0 nM DEX))” value (gene Clca1) was 2.07 and the “Expression level log2((100 nM DEX)* (0 nM DEX))” value (gene Clcn2) was 5.04. For the same compound, the “Expression of mRNA in BFU-E” value (gene Clcn2) was 8.78 RPKM, the “Expression level log2((100 nM DEX)* (0 nM DEX))” value (gene Clint1) was 15.15 and the “Expression of mRNA in BFU-E” value (gene Clint1) was 285.78 RPKM. The “Expression of mRNA in BFU-E” value (gene Clstn1) was 70.51 RPKM, the “Expression change log2 ((100 nM DEX)/(0 nM DEX))” value (gene Clstn1) was 1.72 and the “Expression level log2((100 nM DEX)* (0 nM DEX))” value (gene Cyth3) was 11.35. For the same compound, the “Expression of mRNA in BFU-E” value (gene Cyth3) was 75.31 RPKM, the “Expression of mRNA in BFU-E” value (gene Ddit4) was 20.23 RPKM and the “Expression change log2 ((100 nM DEX)/(0 nM DEX))” value (gene Ddit4) was 3.08. For the same compound, the “Expression level log2((100 nM DEX)* (0 nM DEX))” value (gene E430018J23Rik) was 2.10, the “Expression of mRNA in BFU-E” value (gene E430018J23Rik) was 3.02 RPKM and the “Expression of mRNA in BFU-E” value (gene Egln3) was 16.47 RPKM. The “Expression change log2 ((100 nM DEX)/(0 nM DEX))” value (gene Egln3) was 3.00, the “Expression of mRNA in BFU-E” value (gene Egr1) was 18.06 RPKM and the “Expression of mRNA in BFU-E” value (gene Fam46a) was 6.44 RPKM. For the same compound, the “Expression change log2 ((100 nM DEX)/(0 nM DEX))” value (gene Fam46a) was 1.68, the “Expression of mRNA in BFU-E” value (gene Fam46c) was 13.90 RPKM and the “Expression level log2((100 nM DEX)* (0 nM DEX))” value (gene Fam55c) was 5.91. The “Expression of mRNA in BFU-E” value (gene Fam55c) was 11.20 RPKM, the “Expression of mRNA in BFU-E” value (gene Fam83g) was 8.67 RPKM and the “Expression level log2((100 nM DEX)* (0 nM DEX))” value (gene Fes) was 2.34. The “Expression of mRNA in BFU-E” value (gene Fes) was 3.48 RPKM, the “Expression of mRNA in BFU-E” value (gene Fkbp5) was 74.76 RPKM and the “Expression change log2 ((100 nM DEX)/(0 nM DEX))” value (gene Fkbp5) was 1.71. For the same compound, the “Expression level log2((100 nM DEX)* (0 nM DEX))” value (gene Fkbp11) was 9.88, the “Expression of mRNA in BFU-E” value (gene Fkbp11) was 44.44 RPKM and the “Expression of mRNA in BFU-E” value (gene Frmd4a) was 28.77 RPKM. For the same compound, the “Expression change log2 ((100 nM DEX)/(0 nM DEX))” value (gene Frmd4a) was 2.03, the “Expression level log2((100 nM DEX)* (0 nM DEX))” value (gene Glul) was 12.54 and the “Expression of mRNA in BFU-E” value (gene Glul) was 110.54 RPKM. The “Expression change log2 ((100 nM DEX)/(0 nM DEX))2” value (gene Gm129) was 1.01, the “Expression level log2((100 nM DEX)* (0 nM DEX))” value (gene Gm129) was 2.29 and the “Expression of mRNA in BFU-E” value (gene Gm129) was 3.14 RPKM. For the same compound, the “Expression of mRNA in BFU-E” value (gene Gna14) was 3.37 RPKM, the “Expression level log2((100 nM DEX)* (0 nM DEX))” value (gene Gng13) was 3.81 and the “Expression of mRNA in BFU-E” value (gene Gng13) was 5.76 RPKM. For the same compound, the “Expression of mRNA in BFU-E” value (gene Gsta4) was 9.00 RPKM, the “Expression change log2 ((100 nM DEX)/(0 nM DEX))” value (gene Gsta4) was 2.60 and the “Expression of mRNA in BFU-E” value (gene Hif3a) was 101.46 RPKM. For the same compound, the “Expression change log2 ((100 nM DEX)/(0 nM DEX))” value (gene Hif3a) was 1.38, the “Expression of mRNA in BFU-E” value (gene Hopx) was 13.32 RPKM and the “Expression change log2 ((100 nM DEX)/(0 nM DEX))” value (gene Hopx) was 1.82. The “Expression of mRNA in BFU-E” value (gene Hp) was 4.41 RPKM, the “Expression change log2 ((100 nM DEX)/(0 nM DEX))2” value (gene Ier2) was 1.05 and the “Expression level log2((100 nM DEX)* (0 nM DEX))” value (gene Ier2) was 10.07. The “Expression of mRNA in BFU-E” value (gene Ier2) was 47.27 RPKM, the “Expression level log2((100 nM DEX)* (0 nM DEX))” value (gene Ier3) was 3.80 and the “Expression of mRNA in BFU-E” value (gene Itgb3) was 7.39 RPKM. For the same compound, the “Expression change log2 ((100 nM DEX)/(0 nM DEX))” value (gene Itgb3) was 2.37.
